Data from PubChem BioAssay AID743429 (Vanderbilt Specialized Chemistry Center, 2014).
Calls of active or inactive are those of the source. The rule behind the calls is not given here.

Target: Metabotropic glutamate receptor 1 (Homo sapiens) (UniProt Q13255)
Experiment: off-target activity check on mGlu1 receptor – cell-based, calcium fluorescence, agonist curve fold shift, selectivity assay for mGlu8/mGlu7 PAM project, profiling panel (AID 743429)
Details: mGlu1 cells, Fluo-4 calcium flux, at 10 µM

Sequence of Metabotropic glutamate receptor 1 (Homo sapiens) (Q13255 whole entry, looked up): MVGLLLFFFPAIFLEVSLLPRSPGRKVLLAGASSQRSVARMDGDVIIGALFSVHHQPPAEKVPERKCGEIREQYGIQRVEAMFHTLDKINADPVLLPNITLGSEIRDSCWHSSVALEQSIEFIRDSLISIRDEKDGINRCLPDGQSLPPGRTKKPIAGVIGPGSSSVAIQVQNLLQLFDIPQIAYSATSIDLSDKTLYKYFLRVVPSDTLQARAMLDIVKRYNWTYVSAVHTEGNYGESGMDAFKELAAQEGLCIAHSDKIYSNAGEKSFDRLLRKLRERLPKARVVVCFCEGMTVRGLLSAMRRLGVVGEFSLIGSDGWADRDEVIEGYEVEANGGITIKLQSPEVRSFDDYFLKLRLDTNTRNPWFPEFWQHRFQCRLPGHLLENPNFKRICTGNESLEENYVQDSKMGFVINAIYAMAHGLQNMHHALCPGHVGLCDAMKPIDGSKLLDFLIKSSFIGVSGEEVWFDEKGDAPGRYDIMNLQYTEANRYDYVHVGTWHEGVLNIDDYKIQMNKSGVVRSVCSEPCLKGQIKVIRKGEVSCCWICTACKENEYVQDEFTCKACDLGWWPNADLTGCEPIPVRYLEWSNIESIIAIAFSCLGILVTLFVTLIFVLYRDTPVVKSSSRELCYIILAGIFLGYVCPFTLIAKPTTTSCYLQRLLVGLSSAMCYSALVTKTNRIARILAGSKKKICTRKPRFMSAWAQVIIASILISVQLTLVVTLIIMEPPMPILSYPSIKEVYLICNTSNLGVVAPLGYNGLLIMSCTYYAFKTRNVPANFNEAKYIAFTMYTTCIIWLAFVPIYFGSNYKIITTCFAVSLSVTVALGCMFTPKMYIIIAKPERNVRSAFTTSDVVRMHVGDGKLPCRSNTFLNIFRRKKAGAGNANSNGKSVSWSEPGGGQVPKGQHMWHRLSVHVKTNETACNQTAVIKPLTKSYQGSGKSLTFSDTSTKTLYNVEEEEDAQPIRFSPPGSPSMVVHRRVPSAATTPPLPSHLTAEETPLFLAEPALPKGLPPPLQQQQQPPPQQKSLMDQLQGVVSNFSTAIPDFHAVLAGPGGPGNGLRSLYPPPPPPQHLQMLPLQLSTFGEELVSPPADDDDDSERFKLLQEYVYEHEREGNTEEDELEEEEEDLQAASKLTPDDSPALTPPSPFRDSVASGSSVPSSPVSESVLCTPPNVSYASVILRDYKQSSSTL

## COC(=O)c1ccc(-n2c(C)cc(C(=O)CSc3ccc(NC(C)=O)cc3)c2C)cc1
  fold shift: 1.04 (inactive)
